This is an account of results in patent publication US11780834B2, “Solid forms of 3-((1R,3R)-1-(2,6-difluoro-4-((1-(3-fluoropropyl)azetidin-3-yl)amino)phenyl)-3-methyl-1,3,4,9-tetrahydro-2H-pyrido[3,4-b]indol-2-yl)-2,2-difluoropropan-1-ol and processes for preparing fused tricyclic compounds comprising a substituted phenyl or pyridinyl moiety, including methods …” (Hoffmann-La Roche Inc., priority 2018, dated 2023).

As usually defined, the AUC(0-t) is exposure summed from dosing to a finite time, without extrapolation to infinity. Low values mean less exposure, high ones more exposure. The Cmax is the highest concentration seen after dosing. A word on the half-life: it is the time needed for the level to fall by half in the phase considered. A high value points to slow loss.

Series [1] is described as follows: In vitro metabolite identification. Type of series: in vitro ADME.
Series [2] is described as follows: Four-week GLP repeat-dose oral toxicity study in female rats.
Series [3] concerns ER-positive breast cancer cell lines. Kind of series: Proliferation of ER-positive breast cancer cell lines in vitro. Type of series: cell-based. Conditions: multiple ER-positive breast cancer cell lines, including cells engineered to express clinically relevant ER mutations.
The conditions of series [4]: monkey, in vivo.
Another series in a line: clinical. As to conditions: human, in vivo, po.
The mark [5] stands for this setting: female, rat, plasma, po, 100 mg/kg.

The structures appear in SMILES notation. Counter-ions that a name gives are not always drawn.

Protocol for clinical: Patients were enrolled in a dose-escalation stage with enrollment in an expansion stage to follow. During the single-agent dose escalation, cohorts were evaluated at escalating dose levels to determine the MTD or maximum administered dose (MAD).
Continuous once daily dosing was commenced during the treatment period starting on Cycle 1 Day 1.

Turning to `C[C@@H]1Cc2c([nH]c3ccccc23)[C@@H](c2c(F)cc(NC3CN(CCCF)C3)cc2F)N1CC(F)(F)CO` [Compound B, 3-((1R,3R)-1-(2,6-difluoro-4-((1-(3-fluoropropyl)azetidin-3-yl)amino)phenyl)-3-methyl-1,3,4,9-tetrahydro-2H-pyrido[3,4-b]indol-2-yl)-2,2-difluoropropan-1-ol tartrate], the “Major in vitro metabolic pathway” value in series [1] is listed as “UGT1A4-mediated glucuronidation”. In series [2] (setting [5]), this compound yielded an AUC(0-t) of 143 µg·h/mL and a Cmax of 6560 ng/mL. Further, in series [2] (rats), the “Exposure multiple (AUC) over anticipated human Phase I starting dose at which PLD was observed” value was “at least 44 fold”. In series [2] (rats, 10 mg/kg), the Exposure factor turned out to be 18 fold and the PLD finding entry was “not noted”. In series [2] (rats, 28-day oral), the “Increase in systemic exposure with dose” value is given as “dose proportional”. Further, the Inhibition of proliferation result in series [3] was “potently inhibits”. For the same compound, the “Highest non-severely toxic dose” value in series [4] (female, po, 28 days) is given as 60 mg/kg/day. Also, the “Tolerability at high dose” value in series [4] (200 mg/kg) is listed as “not tolerated”. Also, the half-life in “clinical” is ~2400 min.
